# Measurements from patent US12264156B2, “Compounds and pharmaceutical compositions thereof for the treatment of diseases” (GALAPAGOS NV, priority 2018, dated 2025).
# Tests used:
# [1] = tested on: lung fibrosis induced by radiation; test: Radiation induced fibrosis mouse model; assay type: in vivo; details: 60 mg/kg p.o. b.i.d.
# Excerpt: Pneumonitis and lung fibrosis are the major radiation-induced complications following thoracic radiotherapy, which is one of the major treatment of lung and breast cancers, lymphomas and hematopoietic transplant conditioning. The objective of this model was to evaluate the effect of a compound of the invention in lung fibrosis induced by radiation in mice (Favaudon et al. 2014), in particular on lung functionality (Flexivent) and fibrosis marker (Collagen I).
# 7 weeks old (18-22 gr) female C57BL/6J mice from Charles River (Écully, France), batch number S1672) were maintained on 12 h light/dark cycle at 22° C. with ad libitum access to tap water and food. […]
# Body weight was recorded once a week, and on D23, lung function measurement under anesthesia was realized by Flexivent (Devos et al. 2017) for all groups (6 successful measurement per group) before sacrifice.
# Lungs were collected and fixed in 4% formaldehyde for 24 h before embedding in paraffin. […] The anti-collagen I antibody was detected and amplified by ImmPress kit (Vector Laboratories, 3, Accent Park, Bakewell Road, Orton Southgate, Peterborough, PE2 6XS, United Kingdom, Cat #MP-7401). The immunostained sections were then scanned (Nanozoomer, Hamamatsu) before quantification by image analysis (CaloPix software, TRIBVN Healthcare). Data were expressed as percentage collagen I area per area of lung tissue. […]
# [2] = tested on: mouse T cell transfer model; test: T cell transfer model (mice); assay type: in vivo; details: 30 mg/kg p.o. b.i.d.
# Excerpt: DynaMag (Cat #12321D and 123203D) were obtained from Life Technologies Invitrogen (California, USA); DynabeadsFlowComp Mouse CD4+CD25-treg cells (Cat #11463D) were obtained from Life Technologies Invitrogen (California, USA), Fetal Bovine Serum (GIBCO), Cat #10270-106; RPMI (Gibco) Cat #32404-014 and D-PBS 1× without CaCl2 without MgCl2 (GIBCO), Cat #14190-086 were obtained ThermoFisher Scientific (Massachusetts, USA). Red Blood Cell (RBC) lysis buffer 10×, Cat #BLE420301 obtained from Ozyme (Montigny-le-Bretonneux, France). Cell strainer (70 μm grid), Cat #352350, obtained from Corning (New York, USA). […]
# Fourteen days after cell injection, 100 μL of blood was sampled on each mouse under anesthesic conditions in order to determine CD4 level. […] Disease activity index was determined twice a week. Four to six weeks after the start of treatment, mice were sacrificed, blood was sampled and the complete colon was removed and rinsed with sterile PBS, it was measured and weighed in order to determine colon weight/length ratio. […]
# There were 12 mice per group. The results were expressed as mean±SEM and statistical analysis was performed using non parametric test Kruskal-Wallis with Dunn's Multiple comparison test versus vehicle groups. […]
structure (smiles),measurement,setting,value
"COc1cc(-c2cnc3cc(OCCN4CCOCC4)ccn23)cc2c1C(=O)N(CC(F)(F)F)CC2 [Cpd 88, 8-methoxy-6-[7-(2-morpholinoethoxy)imidazo [1,2-a]pyridin-3-yl]-2-(2,2,2-trifluoroethyl)-3,4-dihydroisoquinolin-1-one]",ColI (collagen I) extent vs. vehicle group,[1],statistically significant reduction of ColI (collagen I) extent
same,AUC of DAI vs. vehicle group,[2],statistical significant reduction of AUC of DAI
